From US4061862A, “Derivatives of 7-(cyclized)phenylglycyl-3-triazolo-thio methyl cephalosporin” (priority 1976, dated 1977)

Key:
Bio-assay (mcg./mg.) = assay: Bio-assay (mcg./mg.)
Method: 7-[D-α-amino-α-(p-hydroxyphenyl)acetamido]-3-(1,2,3-triazol-5-ylthiomethyl)-3-cephem-4-carboxylic acid methanol solvate (15 g.) was slurried in 60 ml. of water. The pH was raised to 6.5 by addition of 4N NaOH and the mixture was passed through a 200 mesh screen. The reaction mixture was slurried at room temperature for 2 hours, the pH being maintained at 6.5 during this period. The crystals were removed by filtration, washed with 20 ml. of water and air dried at 37° C. for 24 hours to give 11.5 g. of title crystalline product. Bio assay = 924 mcg./mg. (average % H2 O, K.F. = 5.26).
7-[D-α-amino-α-(p-hydroxyphenyl)acetamido]-3-(1,2,3-triazol-5-ylthiomethyl)-3-cephem-4-carboxylic acid methanol solvate (200 mesh; 10.0 g.) substantially free of propylene glycol is slurried in 30-40 ml. of deionized water at ambient room temperature (20°-25° C.) to give a pH 3-4 aqueous suspension. NaOH (40%) is slowly added with rapid stirring to bring the pH to 6.3-6.7. The mixture is slurried at pH 6.3-6.7 for 2 hours. The crystals are removed by filtration, washed with water and air dried at room temperature for 24 hours to give a 75-80% weight yield of 950-1000 mcg./mg. crystals of 7-[D-α-amino-α-(p-hydroxyphenyl)acetamido]-3-(1,2,3-triazol-5-ylthiomethyl)-3-cephem-4-carboxylic acid dihydrate. […] H2 O, K.F. = 6.56.

[1] = Loss of bioactivity on storage at elevated temperatures; type: physicochemical
Method: h. Loss of bioactivity on storage at elevated temperatures: 100° C., 24 hours = <6%; 48 hours = <12%; 56° C., 1 month = <10%.

Compound	Bio-assay (Bio-assay (mcg./mg.)) [µg/mg]	degraded at 720 h ([1]; 56° C., 1 month) [%]	degraded at 24 h ([1]; 100° C., 24 hours) [%]	degraded at 48 h ([1]; 100° C., 48 hours) [%]
N[C@@H](C(=O)NC1C(=O)N2C(C(=O)O)=C(CSc3cnn[nH]3)CS[C@H]12)c1ccc(O)cc1.O.O (stereo partly drawn) [7-[D-α-amino-α-(p-hydroxyphenyl)acetamido]-3-(1,2,3-triazol-5-ylthiomethyl)-3-cephem-4-carboxylic acid dihydrate]	950 to 1000			
NC(C(=O)NC1C(=O)N2C(C(=O)O)=C(CSc3c[nH]nn3)CSC12)c1ccc(O)cc1 [7-[D-α-amino-α-(p-hydroxyphenyl)acetamido]-3-(1,2,3-triazol-5-ylthiomethyl)-3-cephem-4-carboxylic acid methanol solvate]	850 to 900			
NC(C(=O)NC1C(=O)N2C(C(=O)O)=C(CSc3c[nH]nn3)CSC12)c1ccc(O)cc1 [7-[D-α-amino-α-(p-hydroxyphenyl)acetamido]-3-(1,2,3-triazol-5-ylthiomethyl)-3-cephem-4-carboxylic acid propylene glycol solvate]		< 10	< 6	< 12
